Reference: publication PMC3970552 (Neuropharmacology, 2013)

Legend:
α3L158CA179Cβ2 nAChR [1] = target: T1, α3L158CA179Cβ2 nAChR (Rattus norvegicus, UniProt P04757+P12390, A206C/L185C); test: Oxidation/reduction treatment; assay type: cell-based; conditions: for IDTT/Icontrol: 40 μM DTT; for ITCEP/Icontrol: 40 μM TCEP
α3G181Cβ2 nAChR [2] = target: T2, α3G181Cβ2 nAChR (Rattus norvegicus, UniProt P04757+P12390, G208C); test: Oxidation/reduction treatment, evoked currents; assay type: cell-based; conditions: ACh + Mor currents
T2 sequence (P04757 26-499 G208C): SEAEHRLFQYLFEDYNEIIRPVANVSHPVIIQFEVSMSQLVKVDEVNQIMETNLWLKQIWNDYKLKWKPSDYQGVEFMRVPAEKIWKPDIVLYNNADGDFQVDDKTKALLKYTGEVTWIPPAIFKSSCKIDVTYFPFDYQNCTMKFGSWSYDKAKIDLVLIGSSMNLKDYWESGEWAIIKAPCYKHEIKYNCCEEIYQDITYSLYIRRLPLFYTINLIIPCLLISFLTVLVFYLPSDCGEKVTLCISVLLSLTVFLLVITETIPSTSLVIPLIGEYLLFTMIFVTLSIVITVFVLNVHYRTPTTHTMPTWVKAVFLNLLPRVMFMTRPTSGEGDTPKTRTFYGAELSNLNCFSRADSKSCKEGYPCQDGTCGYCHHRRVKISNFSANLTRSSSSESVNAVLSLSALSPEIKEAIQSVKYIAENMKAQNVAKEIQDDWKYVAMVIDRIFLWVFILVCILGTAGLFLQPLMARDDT
T2 sequence (P12390 25-500): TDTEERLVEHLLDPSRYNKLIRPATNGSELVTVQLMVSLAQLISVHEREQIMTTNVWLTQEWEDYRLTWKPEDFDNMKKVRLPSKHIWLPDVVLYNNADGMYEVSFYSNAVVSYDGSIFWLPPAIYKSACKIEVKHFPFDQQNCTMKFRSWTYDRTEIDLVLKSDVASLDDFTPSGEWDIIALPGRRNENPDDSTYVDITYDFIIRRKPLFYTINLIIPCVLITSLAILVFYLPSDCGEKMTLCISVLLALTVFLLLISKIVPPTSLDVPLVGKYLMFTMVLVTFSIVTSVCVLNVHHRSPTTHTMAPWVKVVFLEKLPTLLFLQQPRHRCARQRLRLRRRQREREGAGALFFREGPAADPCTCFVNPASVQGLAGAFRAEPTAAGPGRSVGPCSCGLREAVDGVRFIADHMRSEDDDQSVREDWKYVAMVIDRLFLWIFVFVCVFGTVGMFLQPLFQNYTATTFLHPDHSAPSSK

α3L158CG181Cβ2 nAChR [3] = target: T3, α3L158CG181Cβ2 nAChR (Rattus norvegicus, UniProt P04757+P12390, G208C/L185C); test: Oxidation/reduction treatment; assay type: cell-based; conditions: for ACh/Mor-evoked current, % of the control: after H2O2 + ACh + Mor oxidation
T3 sequence (P04757 26-499 L185C/G208C): as the sequence (P04757 26-499 G208C) above, with L160C counted along it
T3 sequence (P12390 25-500): as the sequence (P12390 25-500) above

α3L158Cβ2 nAChR [4] = target: T4, α3L158Cβ2 nAChR (Rattus norvegicus, UniProt P04757+P12390, L185C); test: Oxidation/reduction treatment, evoked currents; assay type: cell-based; conditions: ACh + Mor currents
T4 sequence (P04757 26-499 L185C): as the sequence (P04757 26-499 G208C) above, with L160C, C183G counted along it
T4 sequence (P12390 25-500): as the sequence (P12390 25-500) above

α3L158CK183Cβ2 nAChR [5] = target: T5, α3L158CK183Cβ2 nAChR (Rattus norvegicus, UniProt P04757+P12390, K210C/L185C); test: Oxidation/reduction treatment; assay type: cell-based; conditions: for decrease of ACh-evoked currents: 125 μM ACh challenge; for IDTT/Icontrol: DTT treatment
T5 sequence (P04757 26-499 L185C/K210C): as the sequence (P04757 26-499 G208C) above, with L160C, C183G, K185C counted along it
T5 sequence (P12390 25-500): as the sequence (P12390 25-500) above

α3K183Cβ2 nAChR = α3K183Cβ2 nAChR (Rattus norvegicus, UniProt P04757+P12390, K210C); test: Two-electrode voltage-clamp concentration-response in Xenopus oocytes; assay type: cell-based
Chain of α3K183Cβ2 nAChR (P04757 26-499 K210C): as the sequence (P04757 26-499 G208C) above, with C183G, K185C counted along it
Chain of α3K183Cβ2 nAChR (P12390 25-500): as the sequence (P12390 25-500) above

α3L158CK183Cβ2 nAChR [6] = target: T5, α3L158CK183Cβ2 nAChR; test: as above; assay type: cell-based
α3A179Cβ2 nAChR = α3A179Cβ2 nAChR (Rattus norvegicus, UniProt P04757+P12390, A179C/A206C); test: as above; assay type: cell-based
Chain of α3A179Cβ2 nAChR (P04757 26-499 A179C/A206C): as the sequence (P04757 26-499 G208C) above, with A154C, A181C, C183G counted along it
Chain of α3A179Cβ2 nAChR (P12390 25-500, stated change not applied): as the sequence (P12390 25-500) above

α3L158Cβ2 nAChR [7] = target: T4, α3L158Cβ2 nAChR; test: as above; assay type: cell-based
α3L158CG181Cβ2 nAChR [8] = target: T3, α3L158CG181Cβ2 nAChR; test: as above; assay type: cell-based
α3G181Cβ2 nAChR [9] = target: T2, α3G181Cβ2 nAChR; test: as above; assay type: cell-based
α3L158CA179Cβ2 nAChR [10] = target: T1, α3L158CA179Cβ2 nAChR; test: as above; assay type: cell-based; conditions: naïve oocytes
wild type α3β2 nAChR = wild type α3β2 nAChR (Rattus norvegicus, UniProt P04757+P12390); conditions: ref Cesa et al., 2012, cited from earlier work
Chain of wild type α3β2 nAChR (P04757 26-499): as the sequence (P04757 26-499 G208C) above, with C183G counted along it
Chain of wild type α3β2 nAChR (P12390 25-500): as the sequence (P12390 25-500) above

α3L158CG181Cβ2 nAChR [11] = target: T3, α3L158CG181Cβ2 nAChR; test: MTS-dansyl probing of free sulfhydryls, evoked currents; assay type: cell-based
α3L158Cβ2 nAChR [12] = target: T4, α3L158Cβ2 nAChR; test: MTS-dansyl treatment, evoked currents; assay type: cell-based; conditions: 5 μM ACh currents
α3G181Cβ2 nAChR [13] = target: T2, α3G181Cβ2 nAChR; test: MTS-dansyl treatment, evoked currents; assay type: cell-based; conditions: 100 μM ACh currents
[14] = DTT after treatment with H2O2 only
[15] = ACh alone, Hill fit, naïve oocytes
[16] = ACh + 10 μM Mor, asymptote at saturating ACh, normalized to highest ACh alone
[17] = ACh titration + 10 μM Mor, naïve oocytes
[18] = Mor alone, relative to internal ACh control

T1 sequence (P04757 26-499 L185C/A206C): as the sequence (P04757 26-499 G208C) above, with L160C, A181C, C183G counted along it
T1 sequence (P12390 25-500, stated change not applied): as the sequence (P12390 25-500) above

Structure (SMILES): OO [H2O2]
- decrease of evoked currents (α3L158CA179Cβ2 nAChR [1]; two oxidation conditions (H2O2 alone; H2O2 + ACh + Mor), two challenges (24 μM ACh; 24 μM ACh + 10 μM Mor)): 25–28%
- IH2O2/Icontrol (α3G181Cβ2 nAChR [2]): 0.94 ± 0.03
- decrease of ACh-evoked current (α3L158CG181Cβ2 nAChR [3]; 4.4 mM H2O2 + 100 μM ACh + 10 μM Mor, 5 min, challenge 100 μM ACh): 26%
- decrease of ACh + Mor-evoked current (α3L158CG181Cβ2 nAChR [3]; 4.4 mM H2O2 + 100 μM ACh + 10 μM Mor, 5 min, challenge 100 μM ACh + 10 μM Mor): 26%
- effect on ACh-evoked currents (α3L158CG181Cβ2 nAChR [3]; 4.4 mM H2O2 alone, 5 min, challenge 100 μM ACh): no apparent effect
- decrease of currents evoked by ACh and Mor (α3L158CG181Cβ2 nAChR [3]; 4.4 mM H2O2 alone, 5 min, challenge 100 μM ACh + 10 μM Mor): 24%
- decrease of ACh-evoked current relative to post-reduction value (α3L158CG181Cβ2 nAChR [3]; H2O2 + ACh + Mor oxidation after DTT, challenge 100 μM ACh): 52%
- decrease of ACh/Mor-evoked current relative to post-reduction value (α3L158CG181Cβ2 nAChR [3]; H2O2 + ACh + Mor oxidation after DTT, challenge 100 μM ACh + 10 μM Mor): 46%
- Ipost-oxidation/Icontrol (α3L158CG181Cβ2 nAChR [3]; H2O2 + ACh + Mor treatment, 5 μM ACh currents (MTS probing experiments)): 0.66 ± 0.05
- ACh/Mor-evoked current, % of the control (α3L158CG181Cβ2 nAChR [3]; challenges every 100 sec, first response): about 60%
- ACh/Mor-evoked current, % of the control (α3L158CG181Cβ2 nAChR [3]; five successive challenges in 500 sec): ≤ 80%
- IH2O2/Icontrol (α3L158Cβ2 nAChR [4]): 0.78 ± 0.08
- decrease of ACh-evoked currents (α3L158CK183Cβ2 nAChR [5]; H2O2 + ACh + Mor treatment): 28%
- decrease of ACh-evoked currents (α3L158CK183Cβ2 nAChR [5]; H2O2 alone treatment): 13%

Structure (SMILES): O[C@@H](CS)[C@@H](O)CS [DTT]
- IDTT/Icontrol (α3L158CA179Cβ2 nAChR [1]; 24 μM ACh): 1.30 ± 0.08
- IDTT/Icontrol (α3L158CA179Cβ2 nAChR [1]; 24 μM ACh + 10 μM Mor): 1.26 ± 0.07
- IDTT/Icontrol (ACh + Mor) (α3L158CA179Cβ2 nAChR [1]; [14]): 1.06 ± 0.06
- IDTT/Icontrol (ACh) (α3L158CA179Cβ2 nAChR [1]; [14]): 0.99 ± 0.04
- IDTT/IH2O2 (α3G181Cβ2 nAChR [2]): 0.96 ± 0.06
- increase of ACh-evoked current (α3L158CG181Cβ2 nAChR [3]; 40 μM DTT 5 min on naive oocytes, prior to H2O2, challenge 100 μM ACh): 25%
- IDTT/IH2O2 (α3L158Cβ2 nAChR [4]): 0.96 ± 0.17
- IDTT/Icontrol (ACh + Mor) (α3L158CK183Cβ2 nAChR [5]; DTT post-oxidation): 1.02 ± 0.02
- IDTT/Icontrol (ACh) (α3L158CK183Cβ2 nAChR [5]; DTT post-oxidation): 0.97 ± 0.03
- IDTT/Icontrol (α3L158CK183Cβ2 nAChR [5]; 125 μM ACh): 1.10 ± 0.01
- IDTT/Icontrol (α3L158CK183Cβ2 nAChR [5]; 125 μM ACh + 10 μM Mor): 1.19 ± 0.03

Structure (SMILES): CC(=O)OCC[N+](C)(C)C [ACh, acetylcholine]
- ACh Response nH (α3K183Cβ2 nAChR; ACh alone, Hill fit): 2.43 ± 0.78 [9]
- ACh Response nH (α3L158CK183Cβ2 nAChR [6]; [15]): 1.11 ± 0.14 [6]
- ACh Response nH (α3A179Cβ2 nAChR; ACh alone, Hill fit): 0.79 ± 0.08 [8]
- ACh Response nH (α3L158Cβ2 nAChR [7]; ACh alone, Hill fit): 0.80 ± 0.11 [6] ^b
- ACh Response nH (α3L158CG181Cβ2 nAChR [8]; [15]): 0.93 ± 0.23 [5]
- ACh Response nH (α3G181Cβ2 nAChR [9]; ACh alone, Hill fit): 1.10 ± 0.11 [5]
- ACh Response nH (α3L158CA179Cβ2 nAChR [10]; ACh alone, Hill fit): 1.19 ± 0.20 [7]
- ACh Response nH (wild type α3β2 nAChR; ACh alone, Hill fit): 0.75 ± 0.07

Structure (SMILES): Cc1ccsc1C=CC1=NCCCN1C.O=C(O)C(O)C(O)C(=O)O [Mor, 1,4,5,6-tetrahydro-1-methyl-2-(2-[3-methyl-2-thienyl]ethenyl)pyrimidine, tartrate salt]
- Mor potentiation (α3K183Cβ2 nAChR; ACh + 10 μM Mor vs ACh alone): negligible Mor potentiation
- Mor Modulation Response Emax (α3K183Cβ2 nAChR; [16]): 0.97 ± 0.02
- Mor Modulation Response nH (α3K183Cβ2 nAChR; ACh titration + 10 μM Mor): 1.61 ± 0.22
- Mor potentiation (α3L158CK183Cβ2 nAChR [6]; ACh + 10 μM Mor vs ACh alone): effectively no potentiation
- Mor Modulation Response nH (α3L158CK183Cβ2 nAChR [6]; [17]): 0.95 ± 0.16
- Mor Modulation Response Emax (α3A179Cβ2 nAChR; [16]): 1.6 ± 0.1
- Mor Modulation Response nH (α3A179Cβ2 nAChR; ACh titration + 10 μM Mor): 1.79 ± 0.75
- EC50 (α3L158Cβ2 nAChR [7]): 12 ± 7 µM
- Mor Modulation Response Emax (α3L158Cβ2 nAChR [7]; [16]): 1.6 ± 0.1
- Mor Modulation Response nH (α3L158Cβ2 nAChR [7]; ACh titration + 10 μM Mor): 1.47 ± 0.39
- Emax, activation by Mor alone (α3L158Cβ2 nAChR [7]; [18]): 0.021 ± 0.002
- EC50 (α3L158CG181Cβ2 nAChR [8]): 28 ± 10 µM
- Mor Modulation Response nH (α3L158CG181Cβ2 nAChR [8]; [17]): 1.18 ± 0.25
- Emax, activation by Mor alone (α3L158CG181Cβ2 nAChR [8]; [18]): 0.074 ± 0.009
- EC50 (α3G181Cβ2 nAChR [9]): 41 ± 26 µM
- Mor Modulation Response Emax (α3G181Cβ2 nAChR [9]; [16]): 2.3 ± 0.1
- Mor Modulation Response nH (α3G181Cβ2 nAChR [9]; ACh titration + 10 μM Mor): 1.08 ± 0.12
- Emax, activation by Mor alone (α3G181Cβ2 nAChR [9]; [18]): 0.32 ± 0.05
- Mor Modulation Response nH (α3L158CA179Cβ2 nAChR [10]; ACh titration + 10 μM Mor): 1.70 ± 0.50
- Mor Modulation Response nH (wild type α3β2 nAChR; ACh titration + 10 μM Mor): 1.37 ± 0.80

Structure (SMILES): O=C(O)CCP(CCC(=O)O)CCC(=O)O [TCEP, tris(2-carboxyethyl)phosphine]
- ITCEP/Icontrol (α3L158CA179Cβ2 nAChR [1]; ACh): 1.21 ± 0.04
- ITCEP/Icontrol (α3L158CA179Cβ2 nAChR [1]; ACh + Mor): 1.24 ± 0.05

Structure (SMILES): CN(C)c1cccc2c(S(=O)(=O)NCCSS(C)(=O)=O)cccc12 [MTS-dansyl, dansylamidoethyl methanesthiosulfonate]
- decrease of ACh/Mor-evoked currents by MTS (α3L158CG181Cβ2 nAChR [11]; after H2O2 + ACh + Mor oxidation, 5 μM ACh + 10 μM Mor): 8%
- decrease of ACh current after MTS (α3L158CG181Cβ2 nAChR [11]; after H2O2 alone treatment, 5 μM ACh): 27%
- decrease of ACh + Mor current after MTS (α3L158CG181Cβ2 nAChR [11]; after H2O2 alone treatment, 5 μM ACh + 10 μM Mor): 21%
- decrease of ACh/Mor-evoked currents by MTS (α3L158CG181Cβ2 nAChR [11]; after standard oxidation then 200–300 sec wash, 5 μM ACh + 10 μM Mor): 14%
- decrease of ACh-evoked current after MTS-dansyl (α3L158CG181Cβ2 nAChR [11]; naive oocytes, 50 μM MTS-dansyl 2 min, 5 μM ACh): 33%
- decrease of ACh/Mor-evoked current after MTS-dansyl (α3L158CG181Cβ2 nAChR [11]; naive oocytes, 50 μM MTS-dansyl 2 min, 5 μM ACh + 10 μM Mor): 14%
- decrease of ACh currents after MTS-dansyl (α3L158Cβ2 nAChR [12]): 44 ± 2%
- decrease of ACh currents after MTS-dansyl (α3G181Cβ2 nAChR [13]): 21 ± 4%
